The numbers were not newly measured in patent publication US8173824B2, “Process for producing vitamin D derivative using convergent method” (Chugai Seiyaku Kabushiki Kaisha, priority 2005, dated 2012), which cites them from elsewhere.

One series relates to human keratinocyte. The settings on record: background statement, see WO 2001/096293.
For series [1] the following is noted: compared with the conventional vitamin D derivatives; background statement.

In the case of `C=C1/C(=C\C=C2/CCC[C@]3(C)C([C@H](C)OCC(=O)NCC(F)(F)C(F)(F)F)=CCC23)C[C@@H](O)C[C@@H]1O` (stereo partly drawn) [Formula (1), [{(5Z,7E)-(1S,3R,20S)-1,3-dihydroxy-9,10-secopregna-5,7,10(19),16-tetraen-20-yl}oxy]-N-(2,2,3,3,3-pentafluoropropyl)acetamide], in the series with human keratinocyte, the “human keratinocyte growth inhibition activity” value is listed as “exhibits useful human keratinocyte growth inhibition activity”. For the same compound, in series [1], the calcium level-raising activity result was “lower than the conventional vitamin D derivatives”.
